Test results as given in the supplement of paper PMC6045584.
± gives the standard deviation of the averaged measurements.

What was measured:
[1] = compound: CCN(CC)CCCCNc1ncc2cc(-c3cc(OC)cc(OC)c3)c(NC(=O)NC(C)(C)C)nc2n1; test: surviving fraction relative to DMSO-only wells; higher = less growth inhibition; conditions: exposure time: 5 days
Outline: (§1)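 Continuous five-day exposure to inhibitors at 0.5, 1, 5, 10, 50, 100, 500 and 1000 nM started 24 hours after log-phase tumour cell lines were seeded at 250–500 cells per well in 384-well plates. Luminescence was read after 10 minutes at room temperature. Viability is given as surviving fraction, meaning CellTiter-Glo luminescence normalised to the median of DMSO-only wells.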

[2] = compound: COc1cc2c(cc1O)CC[C@@H]1[C@@H]2CC[C@]2(C)[C@@H](O)CC[C@@H]12 [2-METHOXYESTRADIOL]; test: as above; conditions: exposure time: 5 days
Outline: as §1

Test System	surviving fraction ([1]; 0.5 nM)	surviving fraction ([1]; 1 nM)	surviving fraction ([1]; 5 nM)	surviving fraction ([1]; 10 nM)	surviving fraction ([1]; 50 nM)	surviving fraction ([1]; 100 nM)	surviving fraction ([1]; 500 nM)	surviving fraction ([1]; 1000 nM)	surviving fraction ([2]; 0.5 nM)	surviving fraction ([2]; 1 nM)	surviving fraction ([2]; 5 nM)	surviving fraction ([2]; 10 nM)	surviving fraction ([2]; 50 nM)	surviving fraction ([2]; 100 nM)	surviving fraction ([2]; 500 nM)	surviving fraction ([2]; 1000 nM)
PCI30 HEADNECK	0.906 ± 0.074	0.969 ± 0.09	0.984 ± 0.11	1.08 ± 0.058	1.04 ± 0.054	1.1 ± 0.1	0.912 ± 0.011	0.995 ± 0.093	0.783 ± 0.016	0.857 ± 0.019	1.03 ± 0.039	0.985 ± 0.057	1.01 ± 0.078	0.982 ± 0.051	0.421 ± 0.048	0.216 ± 0.046
ZR751 BREAST	0.946 ± 0.032	1.03 ± 0.063	0.954 ± 0.017	1.01 ± 0.19	0.912 ± 0.04	1.1 ± 0.11	1.01 ± 0.067	1.05 ± 0.12	1.06 ± 0.12	1.04 ± 0.097	1.02 ± 0.039	1.13 ± 0.058	1.06 ± 0.048	1.04 ± 0.098	1.07 ± 0.039	0.645 ± 0.11
22RV1 PROSTATE	1 ± 0.029	1.02 ± 0.048	0.964 ± 0.011	1.01 ± 0.013	0.997 ± 0.034	1.02 ± 0.044	1.04 ± 0.04	1.05 ± 0.036	1.01 ± 0.057	1.09 ± 0.17	1.04 ± 0.07	1.07 ± 0.15	1.03 ± 0.073	0.903 ± 0.16	0.791 ± 0.18	0.646 ± 0.068
HT1080 SOFT TISSUE	1.036 ± 0.009	1.03 ± 0.024	1.02 ± 0.046	1 ± 0.025	1.03 ± 0.021	1.01 ± 0.021	1.03 ± 0.059	1.07 ± 0.029	1.01 ± 0.011	1.02 ± 0.018	1.05 ± 0.016	0.987 ± 0.058	1.01 ± 0.043	0.999 ± 0.033	0.756 ± 0.049	0.313 ± 0.028
SG28 HEADNECK	1.04 ± 0.15	1.09 ± 0.076	1.03 ± 0.09	1.11 ± 0.034	0.968 ± 0.028	1.05 ± 0.1	0.967 ± 0.091	0.938 ± 0.11	1.07 ± 0.037	1.18 ± 0.096	0.94 ± 0.0042	1.11 ± 0.016	1.11 ± 0.13	1.06 ± 0.048	1.06 ± 0.066	1.02 ± 0.064
MG63 BONE	0.9463 ± 0.0067	0.983 ± 0.012	0.998 ± 0.013	0.965 ± 0.016	0.8687 ± 0.0035	0.771 ± 0.013	0.6363 ± 0.0049	0.641 ± 0.016	0.991 ± 0.015	1.008 ± 0.0075	1.02 ± 0.014	1.01 ± 0.018	1.04 ± 0.029	1.05 ± 0.021	0.971 ± 0.034	0.861 ± 0.03
NCIH441 LUNG	1 ± 0.052	1.04 ± 0.052	1 ± 0.022	1.01 ± 0.09	1.04 ± 0.052	1.01 ± 0.059	1.02 ± 0.053	1.06 ± 0.051	1.1 ± 0.058	1.03 ± 0.073	1.08 ± 0.036	1.03 ± 0.065	1.03 ± 0.097	1.03 ± 0.084	0.922 ± 0.09	0.575 ± 0.093
COLO320DM LARGE INTESTINE	0.959 ± 0.04	1.14 ± 0.037	1.11 ± 0.08	1.05 ± 0.072	1.06 ± 0.064	1.1 ± 0.11	1.03 ± 0.068	1.1 ± 0.041	1.14 ± 0.11	1.11 ± 0.12	1.08 ± 0.15	1.08 ± 0.078	1.09 ± 0.15	0.965 ± 0.056	0.3693 ± 0.0033	0.266 ± 0.0093
HCC1954 BREAST	1.01 ± 0.021	1.04 ± 0.04	0.945 ± 0.058	1.11 ± 0.051	1.08 ± 0.041	1.04 ± 0.2	0.829 ± 0.072	0.951 ± 0.11	0.93 ± 0.027	1.09 ± 0.072	1.049 ± 0.0014	1.05 ± 0.12	0.845 ± 0.019	0.742 ± 0.1	0.716 ± 0.034	0.515 ± 0.029
SIHA CERVIX	0.945 ± 0.075	0.972 ± 0.043	1.07 ± 0.055	1.07 ± 0.051	0.908 ± 0.063	0.905 ± 0.098	0.776 ± 0.027	0.818 ± 0.013	0.869 ± 0.011	0.902 ± 0.085	0.952 ± 0.092	0.979 ± 0.057	0.973 ± 0.047	1.02 ± 0.057	0.719 ± 0.062	0.611 ± 0.072
